In US10093656B2, “Fused-ring or tricyclic aryl pyrimidine compound used as kinase inhibitor” (NANJING SANHOME PHARMACEUTICAL CO., LTD, priority 2015, dated 2018):

Tested on: NCI-H1975 lung cancer patient-derived xenograft (CDX)
Experiment: Pharmacodynamics study in vivo, NCI-H1975 xenograft (CDX) model
Parameters: species or system BALB/c nude mice
Details: AZD9291 5 mg/kg
Outline: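 Tumour volume, from two-dimensional caliper readings twice a week as V = 0.5 a×b2, followed over 21 days of daily oral dosing at 10 or 20 mg/kg. Hosts were female BALB/c nude mice, 6-8 weeks, bearing subcutaneous NCI-H1975 implants grown to about 150-200 mm^3 before treatment.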

SMILES: C=CC(=O)Nc1cc(Nc2ncc(F)c(-c3c4n(c5cc(F)ccc35)CCOC4)n2)c(OC)cc1N(C)CCN(C)C [Embodiment 33, N-(2-((2-(Dimethylamino)ethyl)(methyl)amino)-5-((5-fluoro-4-(7-fluoro-3,4-dihydro-1H-[1,4]oxazino[4,3-a]indol-10-yl)pyrimidin-2-yl)amino)-4-methoxyphenyl)acrylamide]
- Tumor Volume (mm^3) 4 days (day 4, oral daily: compound 30 10 mg/kg, 33, 34, 40, 42, 43 20 mg/kg): 91 mm^3
- Tumor Volume (mm^3) 7 days (day 7, oral daily: compound 30 10 mg/kg, 33, 34, 40, 42, 43 20 mg/kg): 68 mm^3
- Tumor Volume (mm^3) 11 days (day 11, oral daily: compound 30 10 mg/kg, 33, 34, 40, 42, 43 20 mg/kg): 43 mm^3
- Tumor Volume (mm^3) 14 days (day 14, oral daily: compound 30 10 mg/kg, 33, 34, 40, 42, 43 20 mg/kg): 27 mm^3
- Tumor Volume (mm^3) 18 days (day 18, oral daily: compound 30 10 mg/kg, 33, 34, 40, 42, 43 20 mg/kg): 9 mm^3
- Tumor Volume (mm^3) 21 days (day 21, oral daily: compound 30 10 mg/kg, 33, 34, 40, 42, 43 20 mg/kg): 3 mm^3
